Experimental data taken from patent US20230063230A1, “NURR1 RECEPTOR MODULATORS” (priority 2019, published 2023).

How the values were obtained:
Nurr1 in MN9D = assay: qPCR MN9D Nurr1; format: cell-based; conditions: cpds tested at 10 μM, analogs of compound 87
Vmat2 in MN9D = assay: cells; format: cell-based; conditions: cpds tested at 10 μM, analogs of compound 87, read-out: qPCR MN9D Vmat2
Nurr1 [1] = biological target: T1, Nurr1 (Homo sapiens, UniProt P43354); assay: Binding MST
Target sequence in this assay (P43354 360-595 limits assumed): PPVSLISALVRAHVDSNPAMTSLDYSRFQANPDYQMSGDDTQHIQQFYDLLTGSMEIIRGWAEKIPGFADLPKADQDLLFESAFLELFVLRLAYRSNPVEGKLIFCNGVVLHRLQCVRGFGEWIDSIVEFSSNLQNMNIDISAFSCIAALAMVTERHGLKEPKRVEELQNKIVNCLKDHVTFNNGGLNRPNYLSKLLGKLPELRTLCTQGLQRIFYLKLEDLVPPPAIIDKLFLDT

TH in SHSY5Y = assay: qPCR SHSY5Y TH; format: cell-based; conditions: Homo sapiens, SH-SY5Y, cpds tested at 10 μM
Nurr1 [2] = biological target: T1, Nurr1; assay: Binding SPR
Target sequence in this assay (P43354 360-595 limits assumed): as above

Nurr1 [3] = biological target: T1, Nurr1; assay: Luciferase cellular assay; format: cell-based; design: expressed in transfected cells; host or cells: SK-N-BE(2)C cells (ATCC CRL-2268); conditions: cpds tested at 10 μM; analogs of compound 87
Target sequence in this assay (P43354 328-598): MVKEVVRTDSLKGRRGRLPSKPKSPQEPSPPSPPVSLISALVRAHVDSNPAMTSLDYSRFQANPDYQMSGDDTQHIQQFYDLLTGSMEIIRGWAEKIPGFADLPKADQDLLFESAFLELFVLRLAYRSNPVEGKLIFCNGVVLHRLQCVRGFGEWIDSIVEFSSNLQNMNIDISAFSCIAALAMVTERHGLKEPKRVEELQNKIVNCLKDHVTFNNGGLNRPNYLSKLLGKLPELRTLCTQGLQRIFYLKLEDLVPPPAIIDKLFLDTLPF

Compound	Binding MST (Nurr1 [1]; analogs of compound 87)	Binding SPR (Nurr1 [2]; analogs of compound 87)	also measured
CC(=O)SCCn1cc(C(C)(C)NC(=O)c2cc(Cl)cc(Cl)c2)cn1 [SP 184, S-2-(4-(2-(3,5-dichlorobenzamido)propan-2-yl)-1H-pyrazol-1-yl)ethyl ethanethioate]			fold induction at 10 µM (Nurr1 in MN9D): > 4; fold induction at 10 µM (Vmat2 in MN9D): > 1.5
CC(C)(NC(=O)c1cc(Cl)cc(Cl)c1)c1cnn(CCS)c1 [SP 153, 3,5-dichloro-N-(2-(1-(2-mercaptoethyl)-1H-pyrazol-4-yl)propan-2-yl)benzamide]	+++	+++	fold induction at 10 µM (Nurr1 in MN9D): > 4; fold induction at 10 µM (TH in SHSY5Y): > 4; fold induction at 10 µM (Vmat2 in MN9D): > 1.5
CC(=O)SCCn1cc(C(C)(C)NC(=O)c2cc(Cl)cc(Cl)c2)nn1 [SP 151, S-2-(4-(2-(3,5-dichlorobenzamido)propan-2-yl)-1H-1,2,3-triazol-1-yl)ethyl ethanethioate]			fold induction at 10 µM (Vmat2 in MN9D): > 1.5
CC(=O)SCCn1cc(C(C)(C)NC(=O)c2cnc3ccccc3c2)nn1 [SP 194, S-2-(4-(2-(quinoline-3-carboxamido)propan-2-yl)-1H-1,2,3-triazol-1-yl)ethyl ethanethioate]			fold induction at 10 µM (Nurr1 in MN9D): > 4; fold induction at 10 µM (Vmat2 in MN9D): > 1.5
CC(=O)SCCn1cc(C(C)(C)NC(=O)c2cc(Cl)cc(N3CCN(C)CC3)c2)nn1 [SP 186, S-2-(4-(2-(3-chloro-5-(4-methylpiperazin-1-yl)benzamido)propan-2-yl)-1H-1,2,3-triazol-1-yl)ethyl ethanethioate]			Luciferase (Nurr1 [3]): ++ (++ => 1.5-fold); fold induction at 10 µM (Vmat2 in MN9D): > 1.5
CC(C)(NC(=O)c1ccc(Cl)c(Cl)c1)c1cn(CCS)nn1 [SP 157, 3,4-dichloro-N-(2-(1-(2-mercaptoethyl)-1H-1,2,3-triazol-4-yl)propan-2-yl)benzamide]	+++	+	Luciferase (Nurr1 [3]): +++ (+++ =>4−fold); fold induction at 10 µM (Vmat2 in MN9D): > 4
COc1cc(OC)cc(C(=O)NC(C)(C)c2cn(CCSC(C)=O)nn2)c1 [SP 193, S-2-(4-(2-(3,5-dimethoxybenzamido)propan-2-yl)-1H-1,2,3-triazol-1-yl)ethyl ethanethioate]			fold induction at 10 µM (Vmat2 in MN9D): > 1.5
O=C(COc1ccc(Cl)c(Cl)c1)NCc1ccc(O)c(O)c1 [SP 95, 2-(3,4-dichlorophenoxy)-N-(3,4-dihydroxybenzyl)acetamide]			Binding MST (Nurr1 [1]; analogs of compound 85): +; Binding SPR (Nurr1 [2]; analogs of compound 85): +
CC(C)(NC(=O)c1cc(F)cc(F)c1)c1cn(CCS)nn1 [SP 158, 3,5-difluoro-N-(2-(1-(2-mercaptoethyl)-1H-1,2,3-triazol-4-yl)propan-2-yl)benzamide]	++	+	
COc1cc(OC)cc(C(=O)NC(C)(C)c2cn(CCS)nn2)c1 [SP 191, N-(2-(1-(2-mercaptoethyl)-1H-1,2,3-triazol-4-yl)propan-2-yl)-3,5-dimethoxybenzamide]	++	+	fold induction at 10 µM (Nurr1 in MN9D): > 4; fold induction at 10 µM (Vmat2 in MN9D): > 1.5
CC(C)(NC(=O)c1ccccc1)c1cn(CCc2ccc(Cl)c(Cl)c2)nn1 [SP 138, N-(2-(1-(3,4-dichlorophenethyl)-1H-1,2,3-triazol-4-yl)propan-2-yl)benzamide]	+	+	
CSSCCn1cc(C(C)(C)NC(=O)c2cc(Cl)cc(NC(C)=O)c2)nn1 [SP 183]	+	+	
CC(C)(NC(=O)c1cc(Cl)cc(Cl)c1)c1cn(CC(N)=O)nn1 [GWL 3.008, N-(2-(1-(2-amino-2-oxoethyl)-1H-1,2,3-triazol-4-yl)propan-2-yl)-3,5-dichlorobenzamide]	+	+	
O=C(COc1ccc(Cl)c(Cl)c1)NCCc1ccc(O)c(O)c1 [SP 60, 2-(3,4-dichlorophenoxy)-N-(3,4-dihydroxyphenethyl)acetamide]			Binding MST (Nurr1 [1]; analogs of compound 85): +; Binding SPR (Nurr1 [2]; analogs of compound 85): +
C=CS(=O)(=O)NNC(=O)COc1ccc(Cl)c(Cl)c1 [UNI6-003, N′-(2-(3,4-dichlorophenoxy)acetyl)ethenesulfonohydrazide]			Binding MST (Nurr1 [1]; analogs of compound 85): +
CC(=O)SCCn1cc(C(C)(C)NC(=O)c2cc(Br)cc(Br)c2)nn1 [SP 173, S-2-(4-(2-(3,5-dibromobenzamido)propan-2-yl)-1H-1,2,3-triazol-1-yl)ethyl ethanethioate]			Luciferase (Nurr1 [3]): +++ (+++ =>4−fold); fold induction at 10 µM (TH in SHSY5Y): > 1.5
CC(C)(NCc1cc(Cl)cc(Cl)c1)c1cn(CCc2ccc(Cl)c(Cl)c2)nn1 [SP 136, N-(3,5-dichlorobenzyl)-2-(1-(3,4-dichlorophenethyl)-1H-1,2,3-triazol-4-yl)propan-2-amine]	+	+	
CC(C)(NC(=O)c1ccc(Cl)c(Cl)c1)c1cn(CCc2ccc(Cl)c(Cl)c2)nn1 [SP 146, 3,4-dichloro-N-(2-(1-(3,4-dichlorophenethyl)-1H-1,2,3-triazol-4-yl)propan-2-yl)benzamide]			Binding SPR (Nurr1 [2]; analogs of compound 85): +
CC(C)(NC(=O)c1cc(Cl)cc(Cl)c1)c1cn(-c2ccoc2)nn1 [GWL 3.001, 3,5-dichloro-N-(2-(1-(furan-3-yl)-1H-1,2,3-triazol-4-yl)propan-2-yl)benzamide]		+	
C=CC(=O)NNC(=O)COc1ccc(Cl)c(Cl)c1 [UNI6-001, N′-(2-(3,4-dichlorophenoxy)acetyl)acrylohydrazide]			Binding MST (Nurr1 [1]; analogs of compound 85): +
CC(C)(NC(=O)c1cc(Cl)cc(Cl)c1)c1cn(CCSC(=O)c2ccccc2)nn1 [SP 164, S-2-(4-(2-(3,5-dichlorobenzamido)propan-2-yl)-1H-1,2,3-triazol-1-yl)ethyl benzothioate]		+	fold induction at 10 µM (Vmat2 in MN9D): > 4
CC(C)C(=O)SCCn1cc(C(C)(C)NC(=O)c2cc(Cl)cc(Cl)c2)nn1 [SP 163, S-2-(4-(2-(3,5-dichlorobenzamido)propan-2-yl)-1H-1,2,3-triazol-1-yl)ethyl 2-methylpropanethioate]			fold induction at 10 µM (TH in SHSY5Y): > 1.5; fold induction at 10 µM (Vmat2 in MN9D): > 4
CC(C)(NC(=O)c1cc(Cl)cc(Cl)c1)c1cnn(COCC[Si](C)(C)C)c1 [SP 174, 3,5-dichloro-N-(2-(1-((2-(trimethylsilyl)ethoxy)methyl)-1H-pyrazol-4-yl)propan-2-yl)benzamide]		+	fold induction at 10 µM (Nurr1 in MN9D): > 4

Second part, led by results:

Binding MST (Nurr1 [1]; analogs of compound 87)	Binding SPR (Nurr1 [2]; analogs of compound 87)	Compound	also measured
+	+	CCn1cc(C(C)(C)NC(=O)c2cc(Cl)cc(Cl)c2)nn1 [SP 65, 3,5-dichloro-N-(2-(1-ethyl-1H-1,2,3-triazol-4-yl)propan-2-yl)benzamide]	
+	+	CC(C)(NC(=O)c1cc(Cl)cc(Cl)c1)c1cn(Cc2ccccc2)nn1 [SP 98, N-(2-(1-benzyl-1H-1,2,3-triazol-4-yl)propan-2-yl)-3,5-dichlorobenzamide]	
	+	CC(C)(NC(=O)c1cc(Cl)cc(Cl)c1)c1cn(CCc2ccc(Cl)c(Cl)c2)nn1 [SP 100, 3,5-dichloro-N-(2-(1-(3,4-dichlorophenethyl)-1H-1,2,3-triazol-4-yl)propan-2-yl)benzamide]	
++		C=CC(=O)n1cc(C(C)(C)NC(=O)c2cc(Cl)cc(Cl)c2)cn1 [SP 162, N-(2-(1-acryloyl-1H-pyrazol-4-yl)propan-2-yl)-3,5-dichlorobenzamide]	
+	+	CC(C)(NC(=O)c1cc(Cl)cc(Cl)c1)c1cn(CCc2ccccc2)nn1 [SP 99, 3,5-dichloro-N-(2-(1-phenethyl-1H-1,2,3-triazol-4-yl)propan-2-yl)benzamide]	
	+	CC(C)(NC(=O)c1cc(Cl)cc(Cl)c1)c1cn(CCC(=O)O)nn1 [GWL 2.129, 3-(4-(2-(3,5-dichlorobenzamido)propan-2-yl)-1H-1,2,3-triazol-1-yl)propanoic acid]	
+		COc1ccc(Cn2cc(C(C)(C)NC(=O)c3cc(Cl)cc(Cl)c3)nn2)cc1 [SP 178, 3,5-dichloro-N-(2-(1-(4-methoxybenzyl)-1H-1,2,3-triazol-4-yl)propan-2-yl)benzamide]	
	+	CC(C)(NC(=O)c1cc(Cl)cc(Cl)c1)c1cn(CCc2ccc(Br)cc2)nn1 [SP 147, N-(2-(1-(4-bromophenethyl)-1H-1,2,3-triazol-4-yl)propan-2-yl)-3,5-dichlorobenzamide]	
++	++	CC(C)(NC(=O)c1cc(Br)cc(Br)c1)c1cn(CCS)nn1 [SP 156, 3,5-dibromo-N-(2-(1-(2-mercaptoethyl)-1H-1,2,3-triazol-4-yl)propan-2-yl)benzamide]	Luciferase (Nurr1 [3]): +++ (+++ =>4−fold); fold induction at 10 µM (TH in SHSY5Y): > 4
	+	CC(C)(NC(=O)c1cc(Cl)cc(Cl)c1)c1cn(CC(=O)O)nn1 [GWL 2.131, 2-(4-(2-(3,5-dichlorobenzamido)propan-2-yl)-1H-1,2,3-triazol-1-yl)acetic acid]	
+	+	CC(C)(NC(=O)c1cc(Cl)cc(Cl)c1)c1cnn(CCN)c1 [SP 155, N-(2-(1-(2-aminoethyl)-1H-pyrazol-4-yl)propan-2-yl)-3,5-dichlorobenzamide]	
	+	CC(C)(NC(=O)c1cc(Cl)cc(Cl)c1)c1cn(CCC(N)=O)nn1 [GWL 2.154, N-(2-(1-(3-amino-3-oxopropyl)-1H-1,2,3-triazol-4-yl)propan-2-yl)-3,5-dichlorobenzamide]	
